The values below come from publication PMC10745497, “The Discovery of Indole-2-carboxylic Acid Derivatives as Novel HIV-1 Integrase Strand Transfer Inhibitors” (Molecules, 2023).

The target in series [1] is T1, HIV-1 integrase (Human immunodeficiency virus type 1 group M subtype B, UniProt P04585).
T1 construct: purchased Abnova
The series can be described thus: Strand transfer inhibition assay (HIV-1 integrase assay kit). The format is biochemical. The conditions noted are these: for IC50: average of three independent experiments; for Improvement of integrase inhibitory activity over the parent compound 3: ratio of IC50s versus compound 3. The protocol: The strand transfer assay was performed using an HIV-1 integrase assay kit (Abnova, Taipei, CN) according to the manufacturer’s instructions. Each sample was dissolved in DMSO and diluted to a final desired concentration (80, 40, 20, 10, 5 μM) with reaction buffer. Briefly, 100 μL of DS DNA solution was added to each well and incubated for 30 min at 37 °C, and the liquid was removed from the wells and washed 3 times with wash buffer. Then, 200 μL of blocking buffer was added to each well and incubated for 30 min in a 37 °C incubator. Followed by the aspiration of the liquid, each well was washed 3 times with reaction buffer, and 100 μL integrase enzyme solution was added to each well and incubated under similar conditions. Sequentially, 50 μL reaction buffer containing different concentrations of samples was added to each well and incubated for 5 min at room temperature. To each well was added 50 μL of TS DNA solution, and the reactions were mixed gently and incubated for 30 min at 37 °C. Then, each well was washed 3 times with wash solution, incubated with 100 μL HRP antibody and incubated for 30 min at 37 °C. After washing the plate under the same conditions, 100 μL TMB peroxidase substrate solution was added to each well and incubated at room temperature for 10 min. To terminate the reaction, 100 μL TMB stop solution was directly added to each well and the absorbance of the sample was determined using a plate reader (ELx800UV, Bio-Tek Instrument Inc., Winooski, VT, USA) at 450 nm.

A short description of series [2]: Cytotoxicity assay (MTT) on MT-4 cells. The format is cell-based, human. The conditions noted are these: human, five days, read-out: CC50, concentration that inhibits the proliferation of MT-4 cells by 50%. The protocol: (§1) The cytotoxicity of the title compounds was tested through MTT analysis on MT-4 cells. Cells were seeded in 96-well plates with a density of 50,000 cells/well and coincubated with serial diluted compounds (2.5, 5, 10, 20, 40, and 80 μM) at 37 °C for five days. MTT (Sigma) was then added to each well to a final concentration of 0.5 mg/mL and incubated for 2 h. Subsequently, the medium was decanted, and 150 μL of DMSO was added to each well. The absorbance was obtained using a microplate reader at 570 nm, and all measurements were conducted three times under the same condition. Finally, 50% cytotoxicity concentration (CC50) values were calculated by Graphpad Prism 8.

The test system of series [3] is MT-4 cells. In words: Cytotoxicity assay (MTT) on MT-4 cells. The format is cell-based, human. The conditions noted are these: five days, read-out: CC50, concentration that inhibits the proliferation of MT-4 cells by 50%. As for the experimental part: as §1
Setting [4] is: IC50, concentration required to inhibit the in vitro strand-transfer step of integrase by 50%.
Where [5] appears, read: read-out: IC50, concentration required to inhibit the in vitro strand-transfer step of integrase by 50%.

Molecules are shown by their SMILES. Where two headings read alike, the source gives them in different places.

Consider `Clc1ccc2c(c1)C(c1ccccc1Cl)=NCc1nnc(CSCc3ccccc3)n1-2` [Compound 5], for which the melting point (usually the temperature of the solid-liquid transition) was in the range of 164.7 to 167.8 °C. The same compound yielded an IC50 in series [1] (setting [4]) of 47.4 ± 1.45 µM.
Compound `O=C(NCc1ccc(F)cc1)c1coc(CN(Cc2ccc3c(c2)OCO3)Cc2ccc3c(c2)OCO3)n1` [Compound 8] registered a melting point of 171.5 to 176.8 °C. For the same compound, in series [1] (setting [5]), the IC50 was 28.2 ± 1.07 µM.
`O=C(O)c1[nH]c2cc(Nc3ccc(F)cc3F)ccc2c1COCc1ccccc1F` [Compound 20b, 6-((2,4-difluorophenyl)amino)-3-(((2-fluorobenzyl)oxy)methyl)-1H-indole-2-carboxylic acid]: the melting point is 178.5 to 181.8 °C. Also, the IC50 in series [1] (setting [5]) turned out to be 0.64 ± 0.06 µM. In addition, the CC50 at 5 days in series [2] is over 80 µM.
On to `COc1ccc(Nc2ccc3c(COCc4ccccc4F)c(C(=O)O)[nH]c3c2)cc1F` [Compound 20a, 6-((3-fluoro-4-methoxyphenyl)amino)-3-(((2-fluorobenzyl)oxy)methyl)-1H-indole-2-carboxylic acid], for which the melting point lay in the range of 169.9 to 173.7 °C. The IC50 in series [1] (setting [5]) turned out to be 0.13 ± 0.02 µM. Moreover, the CC50 at 5 days in series [2] is over 80 µM.
`O=C(O)c1[nH]c2cc(Nc3ccc(F)cc3F)ccc2c1COCc1ccc(C(F)(F)F)cc1` [Compound 17b, 6-((2,4-difluorophenyl)amino)-3-(((4-(trifluoromethyl)benzyl)oxy)methyl)-1H-indole-2-carboxylic acid]: the melting point was 157.3 to 160.5 °C. In series [1] (setting [5]), the IC50 came to 0.39 ± 0.09 µM. The CC50 at 5 days in series [2] was over 80 µM.
Turning to `COc1ccc([C@H]2CC(=O)Nc3c(S(=O)(=O)c4ccccc4)csc32)cc1OC1CCCC1` [Compound 2], the melting point was in the range of 113 to 116.7 °C. Moreover, the IC50 in series [1] (setting [5]) stood at 33 ± 1.29 µM.
With `CC(C)OC(=O)c1[nH]c2cc(Nc3ccc(F)cc3F)ccc2c1COCc1ccccc1F` [Compound 19b, Isopropyl 6-((2,4-difluorophenyl)amino)-3-(((2-fluorobenzyl)oxy)methyl)-1H-indole-2-carboxylate], the melting point was in the range of 171.8 to 175.3 °C. The IC50 in series [1] (setting [5]) came to 1.7 ± 0.15 µM. In addition, the CC50 at 5 days in series [2] was over 29 µM. Also, in series [3], the CC50 was 29.4 ± 1.76 µM.
In turn, `O=C(/C=C/c1ccc2c(c1)OCO2)C[C@@]1(O)C(=O)N(Cc2ccc(Cl)cc2)c2ccccc21` [Compound 7] showed a melting point of 147 to 148.2 °C. In addition, the IC50 in series [1] (setting [5]) turned out to be 21.4 ± 0.26 µM.
In the case of `COc1ccc(Nc2ccc3c(COCc4ccc(C(F)(F)F)cc4)c(C(=O)O)[nH]c3c2)cc1F` [Compound 17a, 6-((3-fluoro-4-methoxyphenyl)amino)-3-(((4-(trifluoromethyl)benzyl)oxy)methyl) -1H-indole-2-carboxylic acid], the melting point lay in the range of 134.8 to 136.3 °C. Moreover, the IC50 in series [1] (setting [5]) was determined as 0.93 ± 0.07 µM. Further, the CC50 at 5 days in series [2] was over 80 µM.
The compound `COc1ccc(Nc2ccc3c(COCc4ccc(C(F)(F)F)cc4)c(C(=O)OC(C)C)[nH]c3c2)cc1F` [Compound 16a, Isopropyl 6-((3-fluoro-4-methoxyphenyl)amino)-3-(((4-(trifluoromethyl)benzyl)oxy)methyl)-1H-indole-2-carboxylate] yielded a melting point of 142.3 to 145.6 °C. For the same compound, the IC50 in series [1] (setting [5]) is 3.47 ± 0.82 µM. The CC50 at 5 days in series [2] is over 80 µM.
For the compound `COc1ccc(Nc2ccc3c(COCc4ccccc4F)c(C(=O)OC(C)C)[nH]c3c2)cc1F` [Compound 19a, Isopropyl 6-((3-fluoro-4-methoxyphenyl)amino)-3-(((2-fluorobenzyl)oxy)methyl)-1H-indole-2-carboxylate], the melting point lay within 141.2 to 144.5 °C. Further, in series [1] (setting [5]), the IC50 was 1.05 ± 0.32 µM. For the same compound, in series [2], the CC50 at 5 days is over 29 µM. In addition, the CC50 in series [3] is 37.6 ± 3.64 µM.
Compound `CC(C)OC(=O)c1[nH]c2cc(Br)ccc2c1COCc1ccc(C(F)(F)F)cc1` [Compound 15, Isopropyl 6-bromo-3-(((4-(trifluoromethyl)benzyl)oxy)methyl)-1H-indole-2-carboxylate] had an IC50 in series [1] (setting [4]) of 2.34 ± 0.31 µM. Also, in series [1], the “Improvement of integrase inhibitory activity over the parent compound 3” value amounted to 5.3 fold. In addition, the CC50 at 5 days in series [2] was over 80 µM.
Consider `CC(C)OC(=O)c1[nH]c2cc(Nc3ccc(F)cc3F)ccc2c1COCc1ccc(C(F)(F)F)cc1` [Compound 16b, Isopropyl 6-((2,4-difluorophenyl)amino)-3-(((4-(trifluoromethyl)benzyl)oxy)methyl)-1H-indole-2-carboxylate], for which the melting point was 149.7 to 152.5 °C. In series [1] (setting [5]), the IC50 is 1.06 ± 0.25 µM. Moreover, the CC50 at 5 days in series [2] was over 80 µM.
`O=C(NC1CCCC1)c1ccc2c(=O)n(Cc3ccco3)c(=O)n(Cc3cccc([N+](=O)[O-])c3)c2c1` [Compound 6] returned a melting point of 235.3 to 241.2 °C. In addition, the IC50 in series [1] (setting [5]) was 22.6 ± 0.58 µM.
Compound `O=c1c2cc(N3CCOCC3)ccc2nc(SCc2cc(=O)n3cc(Cl)ccc3n2)n1Cc1ccc2c(c1)OCO2` [Compound 9] returned a melting point of 239 to 240.1 °C. The IC50 in series [1] (setting [5]) is 32.8 ± 0.83 µM.
The compound `Cc1c2c(=O)n(-c3nc4ccccc4s3)n(Cc3ccccc3)c2cc(=O)n1Cc1ccc2c(c1)OCO2` [Compound 10] had a melting point of 139.9 to 143.6 °C. In addition, the IC50 in series [1] (setting [5]) was determined as 22.3 ± 0.43 µM.
The compound `COc1ccc2[nH]c(C(=O)O)c(CC(=O)O)c2c1` [Compound 3] had a melting point of 159.7 to 163.2 °C. Moreover, in series [1] (setting [5]), the IC50 came to 12.41 ± 0.07 µM.
For the compound `Cc1ccc(CNC(=O)CCS(=O)(=O)c2ccc3c(c2)CCN3C(=O)C2CC2)cc1` [Compound 1], the melting point was in the range of 173.4 to 175.3 °C. The IC50 in series [1] (setting [5]) is 39.1 ± 1.21 µM.
Take `O=C(O)c1[nH]c2cc(Br)ccc2c1COCc1ccccc1F` [Compound 21, 6-bromo-3-(((2-fluorobenzyl)oxy)methyl)-1H-indole-2-carboxylic acid]: the melting point was in the range of 174.3 to 178 °C. Also, in series [1] (setting [5]), the IC50 turned out to be 6.85 ± 0.66 µM. For the same compound, the CC50 at 5 days in series [2] is over 80 µM.
For `CC(C)OC(=O)c1[nH]c2cc(Br)ccc2c1COCc1ccccc1F` [Compound 18, Isopropyl 6-bromo-3-(((2-fluorobenzyl)oxy)methyl)-1H-indole-2-carboxylate], the melting point is 154.6 to 158.9 °C. This compound yielded an IC50 in series [1] (setting [4]) of 1.92 ± 0.07 µM. The “Improvement of integrase inhibitory activity over the parent compound 3” value in series [1] stood at 6.5 fold. The CC50 at 5 days in series [2] is over 29 µM. Moreover, the CC50 in series [3] was 45.3 ± 2.73 µM.
Take `Cc1nnc(C(=O)NC(C)(C)c2nc(C(=O)NCc3ccc(F)cc3)c(O)c(=O)n2C)o1` [RAL, raltegravir, reference compound]: the CC50 at 5 days in series [2] was over 80 µM.
Take `COc1cc(OC)c([C@H]2c3c(oc4ccc(Cl)cc4c3=O)C(=O)N2c2cc(C)on2)cc1OC` [Compound 4]: the melting point was 271.4 to 279 °C. Further, in series [1] (setting [5]), the IC50 worked out at 18.5 ± 1.06 µM.
